Measurements as given in US12521373B2, “Use of losartan for the treatment of fibrotic diseases, in particular epidermolysis bullosa” (Crowd Pharma Losartan GmbH & Co. KG, priority 2020, dated 2026).

Legend:
Type in all cases: in vivo, human
[1] = tested on: children with moderate to severe RDEB; test: Epidermolysis Bullosa Disease Activity and Scarring Index (EBDASI) in clinical trial
Text: In order to check whether beneficial effects could be obtained in human beings, a clinical trial has been performed. In the trial a group of about 30 patients has been selected. Patient enrollment: 28 children with molecularly confirmed diagnosis of moderate to severe RDEB, age 2-16 years (age of 25 months), were enrolled at the EB Center Freiburg. A validated scoring instrument for EB that assesses response to therapy separately from chronic damage. It is therefore suitable for interventional trials. […] It includes an activity and damage component for: 1. skin; 2. scalp; 3. mucous membranes; 4. nails; 5. other epithelialized surfaces (incl. larynx, esophagus, genitourinary), hands-pseudosyndactyly and skin cancer. Statistical values for EBDASI are shown in FIG. 2 when determined at the visits in the clinic.

[2] = tested on: children with moderate to severe RDEB; test: Morphometric scoring of finger contractures (little span) in clinical trial; details: second interim analysis, FIG. 12
Procedure: During the ongoing clinical trial described in the preceding examples, an additional novel assessment parameter was added to measure progression of finger contractures: A morphometric scoring instrument that measures the length of the span when spreading fingers as far as possible. In particular, the following parameters were measured: maximal distance of thumb tip and index finger tip (separately for left hand and right hand and the mean value of both hands), also known as 'little span'. In RDEB, disease progression leads to shortening of the span and development of pseudosyndactylies and […] deformities.

[3] = tested on: children with moderate to severe RDEB; test: Itch Assessment Scale for the Pediatric Burn Patients in clinical trial; details: values at clinical visits after losartan initiation, FIG. 3
Text: In order to check whether beneficial effects could be obtained in human beings, a clinical trial has been performed. In the trial a group of about 30 patients has been selected. Patient enrollment: 28 children with molecularly confirmed diagnosis of moderate to severe RDEB, age 2-16 years (age of 25 months), were enrolled at the EB Center Freiburg. The Itch Assessment Scale for the Pediatric Burn Patients, a validated instrument for assessing skin burns, which are similar to RDEB. The scale is based on the Itch Man Scale developed by Blakeney & Marvin (2000), and was used to evaluate the intensity of itch of the trial participants. […] Values taken at clinical visits were determined.

[4] = tested on: children with moderate to severe RDEB; test: Wong-Baker FACES Scale for Pain in clinical trial; details: first interim analysis, FIG. 6
Text: In order to check whether beneficial effects could be obtained in human beings, a clinical trial has been performed. In the trial a group of about 30 patients has been selected. Patient enrollment: 28 children with molecularly confirmed diagnosis of moderate to severe RDEB, age 2-16 years (age of 25 months), were enrolled at the EB Center Freiburg. The Wong-Baker FACES Scale for Pain that uses happy or sad faces shown in the score http://wongbakerfaces.org/) is the preferred method of pain reporting by children. This validated tool is widely used to rate pain severity in children with both chronic and acute pain.

[5] = tested on: CRP, IL6, Serum amyloid A and TNFα; test: Serum biomarkers of inflammation in clinical trial; details: over the trial, FIG. 8
Procedure: A blood sample for serum analysis was collected at all clinic visits. The analyses includes TGF levels, and biomarkers of inflammation and fibrosis, such as TNFα, CRP, ferritin, IL6 (FIG. 4) and amyloid. TGFβ and TNFα was analyzed by specific quantitative ELISAs (RayBiotech) at the EB Center Freiburg, while CRP, ferritin, IL6 and amyloid are measured at the central laboratories of the Medical Centers in Freiburg.

RDEB patients = test: Clinical trial in RDEB patients, overall outcome; details: second interim analysis, summary
Procedure: In order to check whether beneficial effects could be obtained in human beings, a clinical trial has been performed. In the trial a group of about 30 patients has been selected. Patient enrollment: 28 children with molecularly confirmed diagnosis of moderate to severe RDEB, age 2-16 years (age of 25 months), were enrolled at the EB Center Freiburg. […] Such parameters were measured in the course of the trial.

[6] = tested on: children with moderate to severe RDEB; test: Birmingham Epidermolysis Bullosa Severity Score (BEBS) in clinical trial; details: second interim analysis, baseline (clinic visit 1, day 1) vs clinic visit 5, week 40, FIG. 9
Text: In order to check whether beneficial effects could be obtained in human beings, a clinical trial has been performed. In the trial a group of about 30 patients has been selected. Patient enrollment: 28 children with molecularly confirmed diagnosis of moderate to severe RDEB, age 2-16 years (age of 25 months), were enrolled at the EB Center Freiburg. […] Eleven items are scored: area of damaged skin, involvement of nails, mouth, eyes, larynx and esophagus, scarring of hands, skin cancer, chronic wounds, alopecia and nutritional compromise. The area of damaged skin is allocated 50 points, and the 10 other items 5 points each, giving a maximum score of 100. […] Therefore, an additional EB-specific scoring instrument was used.

[7] = tested on: children with moderate to severe RDEB; test: Quality of Life in EB (QOLEB) Questionnaire in clinical trial; details: first interim analysis, FIG. 7
Text: In order to check whether beneficial effects could be obtained in human beings, a clinical trial has been performed. In the trial a group of about 30 patients has been selected. Patient enrollment: 28 children with molecularly confirmed diagnosis of moderate to severe RDEB, age 2-16 years (age of 25 months), were enrolled at the EB Center Freiburg. Although pain and itch scores partly reflect the patients' quality of life, specific scores were used. […] Therefore, children under the age of 10 years included their parents' advice when completing the questionnaires, and children under 8 years of age or unable to read, have the parents completed the questionnaire.

[8] = tested on: children with moderate to severe RDEB; test: Safety and tolerability in clinical trial (adverse events, blood pressure, heart function)
Procedure: Furthermore, the proPNB(pg/ml) was also measured on each visit to evaluate for signs of heart failure.

[9] = tested on: children with moderate to severe RDEB; test: Children's Dermatology Life Quality Index (CDLQI) in clinical trial
Text: In order to check whether beneficial effects could be obtained in human beings, a clinical trial has been performed. In the trial a group of about 30 patients has been selected. Patient enrollment: 28 children with molecularly confirmed diagnosis of moderate to severe RDEB, age 2-16 years (age of 25 months), were enrolled at the EB Center Freiburg. The Children's Dermatology Life Quality Index (CDLQI) was used in addition, since it has a version for young children, age of >4, using cartoon images. It consists of 10 questions regarding how the skin disease has affected the patient's quality of life over the past 1 week, in each of 10 domains, with 4 possible responses graded 0-3 (range of scores 0-30).

[10] = second interim analysis, FIG. 10
[11] = first interim analysis, after 18 patients had completed the study

With `CCCCc1nc(Cl)c(CO)n1Cc1ccc(-c2ccccc2-c2nnn[nH]2)cc1` [Losartan, 2-Butyl-4-chloro-1-[[2′-(1H-tetrazol-5-yl)[1,1-biphenyl]-4-yl]methyl]-1H-imidazol-5-methanol] the EBDASI score ([1]; during treatment, clinic visit 1 to clinic visit 5, FIG. 2) was “improved substantially”, the EBDASI activity score ([1]; first interim analysis, FIG. 7) was “improved” and the EBDASI damage score ([1]; first interim analysis, FIG. 7) was “improved”. For the same compound, the EBDASI activity score [1, 10] was “showed improvement”, the EBDASI damage score [1, 10] was “showed improvement” and the EBDASI score [1, 10] was “significantly improved”. The “EBDASI total score (sum of activity and damage score)” value [1, 10] was “showed improvement”, the “Little span (distance between tip of the thumb and tip of the index finger)” value [2] was “increase” and the Itch score [3] was “a reduction of itch”. The Pain assessment score [4] was “went statistically to a lower level”, the CRP [5] was “went down” and the IL6 [5] was “went down”. For the same compound, the “Serum amyloid A” value [5] was “went down”, the TNFα [5] was “went down” and the Disease progression (RDEB patients) was “reduced disease progression”. The Disease symptoms (RDEB patients) was “improved disease symptoms”, the BEBS [6] was “improved” and the “Quality of life score QoLEB” value [7] was “improvement”. For the same compound, the “Ejection fraction (heart's pump function)” value ([8]; first interim analysis) was “no differences”, the “Adverse events related to the Losartan treatment” value [8, 11] was “no adverse events had been observed” and the “Overall safety and tolerability of treatment” value [8, 11] was “safe and well tolerated”. For the same compound, the “proPNB, signs of heart failure” value ([8]; measured on each visit) was “no significant changes”, the “Impact on the blood pressure” value ([8]; normotensive patients, dosage regimen as disclosed) was “without negative impact” and the “Number of adverse events possibly related to trial medication (pruritus, not serious)” value ([8]; second interim analysis) was 1. The Safety of treatment ([8]; second interim analysis) was “safe”, the “Quality of life score CDLQI” value ([9]; first interim analysis, FIG. 7) was “improvement” and the CDLQI score ([9]; second interim analysis, baseline (clinic visit 1, day 1) vs clinic visit 5, week 40, FIG. 11) was “amelioration of the quality of life”.
